The values below come from patent US10227337B2, “Evaluation probe for central nervous system permeability, evaluation method for central nervous system permeability, and screening method using an evaluation probe for central nervous system permeability” (CANON KABUSHIKI KAISHA, priority 2011, dated 2019).

Structures are written as SMILES.

Data set [1] is described as follows: Measurement of fluorescence characteristics of dye compounds. The following applies: 5-μM solution in DMSO. Type of data set: physicochemical. From the text:
5-μM solutions of Dye compounds 1 to 46 in DMSO were each prepared and measured for its excitation wavelength and fluorescence emission wavelength with an FL4500 fluorescence spectrometer manufactured by Hitachi High-Technologies Corporation.

The subject of data set [2] is cranial nerve tissue (brain) of juvenile zebrafish. The experiment in a line: Example 3: brain fluorescence of juvenile zebrafish exposed to compound (23) probe liquid with or without MK571 and FTC. Type of data set: in vivo. Conditions: concluded from single versus combined MK571 and FTC. The protocol:
A probe liquid 6 was obtained by changing the compound (8) used in the probe liquid 1 of Example 1 to the compound (23). Further, a probe liquid 7 was obtained by adding MK571 and FTC, each at 30 μM, as a transporter inhibitor.
4 mL of the probe liquid 6 and 7 and each of 20 juvenile zebrafish on 7 days post fertilization were each loaded into any well of a 6-well multiplate, and exposure was started. The zebrafish during exposure were each taken out of the well 60 minutes, 180 minutes and 360 minutes after the starting of the exposure, and in accordance with the same operation as in Example 1, fluorescence images of a cranial nerve tissue and a blood vessel on the zebrafish body side were captured and fluorescence intensities in the CNS tissue and the blood vessel were evaluated.

Turning to `O=C(O)CCN1C(=O)/C(=C\c2cc(Br)c3c(c2)C2CCCC2N3c2ccc(Br)cc2)SC1=S` (centres unmarked) [Compound 1], in data set [1], the Excitation wavelength λex was 474 nm and the Fluorescence wavelength λem was 590 nm.
On the same counts, the results for `COc1ccc(N2c3ccc(/C=C4/SC(=S)N(CCC(=O)O)C4=O)cc3C3CCCC32)cc1` (centres unmarked) [Compound 2] are 521 nm and 634 nm.
In data set [1], `O=C(O)CCN1C(=O)/C(=C\c2ccc3c(c2)C2CCCC2N3Cc2ccccc2)SC1=S` (centres unmarked) [Compound 3] returned an Excitation wavelength λex of 510 nm and a Fluorescence wavelength λem of 584 nm.
Take `O=C(O)CCN1C(=O)/C(=C\c2ccc3c(c2)C2CCCC2N3c2ccccc2)SC1=S` (centres unmarked) [Compound 4]: in data set [1], the Excitation wavelength λex turned out to be 502 nm and the Fluorescence wavelength λem turned out to be 604 nm.
On the same counts, the results for `COc1ccc2cc(N3c4ccc(/C=C5/SC(=S)N(CCC(=O)O)C5=O)cc4C4CCCC43)ccc2c1` (centres unmarked) [Compound 5] are 521 nm and 646 nm.
Taken in the same sequence, the figures for `CN1c2ccc(/C=C3/SC(=S)N(CCC(=O)O)C3=O)cc2C2CCCC21` (centres unmarked) [Compound 6] were 517 nm and 590 nm.
Taken in the same sequence, the figures for `CCN1c2ccc(/C=C3/SC(=S)N(CCC(=O)O)C3=O)cc2CC1C` (centres unmarked) [Compound 7] were 509 nm and 593 nm.
In data set [1], `CCN1CCc2cc(/C=C3/SC(=S)N(CCC(=O)O)C3=O)ccc21` [Compound 8] returned an Excitation wavelength λex of 510 nm and a Fluorescence wavelength λem of 597 nm.
On the same counts, the results for `CCn1c2ccccc2c2cc(/C=C3/SC(=S)N(CCC(=O)O)C3=O)ccc21` [Compound 9] are 452 nm and 540 nm.
Taken in the same sequence, the figures for `CCCN1c2ccc(/C=C3/SC(=S)N(CCC(=O)O)C3=O)cc2C2CCCC21` (centres unmarked) [Compound 10] were 519 nm and 592 nm.
In data set [1], `CCN1c2ccc(/C=C/C=C3/SC(=S)N(CCC(=O)O)C3=O)cc2C2CCCC21` (centres unmarked) [Compound 11] showed an Excitation wavelength λex of 564 nm and a Fluorescence wavelength λem of 671 nm.
On the same counts, the results for `CSc1ccc(N2c3ccc(/C=C4/SC(=S)N(CCC(=O)O)C4=O)cc3C3CCCC32)cc1` (centres unmarked) [Compound 12] are 518 nm and 647 nm.
Taken in the same sequence, the figures for `CCN1c2ccc(/C=C3/SC(=S)N(CCC(=O)O)C3=O)cc2C2CCCC21` (centres unmarked) [Compound 13] were 513 nm and 587 nm.
In data set [1], `CCN1c2ccc(/C=C3/SC(=S)N(CC(=O)O)C3=O)cc2C2CCCC21` (centres unmarked) [Compound 14] had an Excitation wavelength λex of 507 nm and a Fluorescence wavelength λem of 585 nm.
Taken in the same sequence, the figures for `CSc1ccc(N2c3ccc(/C=C4/SC(=S)N(CC(=O)O)C4=O)cc3C3CCCC32)cc1` (centres unmarked) [Compound 15] were 517 nm and 638 nm.
On the same counts, the results for `CCN1c2ccc(/C=C3/SC(=S)N(CC(=O)O)C3=O)cc2CC1C` (centres unmarked) [Compound 16] are 510 nm and 590 nm.
On the same counts, the results for `O=C(O)CN1C(=O)/C(=C\c2ccc3c(c2)C2CCCC2N3c2ccccc2)SC1=S` (centres unmarked) [Compound 17] are 508 nm and 604 nm.
With `CSc1cccc(N2c3ccc(/C=C4/SC(=S)N(CC(=O)O)C4=O)cc3C3CCCC32)c1` (centres unmarked) [Compound 18], in data set [1], the Excitation wavelength λex came to 509 nm and the Fluorescence wavelength λem worked out at 604 nm.
Taken in the same sequence, the figures for `CCN1CCc2cc(/C=C3/SC(=S)N(CC(=O)O)C3=O)ccc21` [Compound 19] were 511 nm and 594 nm.
On the same counts, the results for `O=C(O)CN1C(=O)/C(=C\c2ccc3c(c2)C2CCCC2N3Cc2ccccc2)SC1=S` (centres unmarked) [Compound 20] are 506 nm and 581 nm.
Turning to `O=C(O)CN1C(=O)/C(=C\c2cc(Br)c3c(c2)C2CCCC2N3c2ccc(Br)cc2)SC1=S` (centres unmarked) [Compound 21], in data set [1], the Excitation wavelength λex came to 476 nm and the Fluorescence wavelength λem was determined as 580 nm.
Taken in the same sequence, the figures for `O=C(O)CN1C(=O)/C(=C\c2ccc3c(c2)CCN3c2ccccc2)SC1=S` [Compound 22] were 505 nm and 612 nm.
Consider `COc1ccc(N2c3ccc(/C=C4/SC(=S)N(CC(=O)O)C4=O)cc3C3CCCC32)cc1` (centres unmarked) [Compound 23], for which the “transport by transporters (substrate property)” value in data set [2] is “transported by both of MRP and BCRP”. In data set [1], this molecule gave an Excitation wavelength λex of 518 nm and a Fluorescence wavelength λem of 637 nm.
In data set [1], `O=C(O)CN1C(=O)/C(=C\c2cc(Br)c3c(c2)C2CCCC2N3Cc2ccccc2)SC1=S` (centres unmarked) [Compound 24] yielded an Excitation wavelength λex of 486 nm and a Fluorescence wavelength λem of 578 nm.
As for `CCn1c2ccccc2c2cc(/C=C3/SC(=S)N(CC(=O)O)C3=O)ccc21` [Compound 25], in data set [1], the Excitation wavelength λex came out at 453 nm and the Fluorescence wavelength λem worked out at 536 nm.
Taken in the same sequence, the figures for `COc1ccc2cc(N3c4ccc(/C=C5/SC(=S)N(CC(=O)O)C5=O)cc4C4CCCC43)ccc2c1` (centres unmarked) [Compound 26] were 525 nm and 646 nm.
Taken in the same sequence, the figures for `CCOC(=O)CCN1C(=O)/C(=C\c2ccc3c(c2)C2CCCC2N3CC)SC1=S` (centres unmarked) [Compound 27] were 518 nm and 590 nm.
Taken in the same sequence, the figures for `CCN1C(=O)/C(=c2\s/c(=C/c3ccc4c(c3)C3CCCC3N4c3ccccc3)c(=O)n2CC(=O)O)SC1=S` (centres unmarked) [Compound 29] were 525 nm and 610 nm.
In data set [1], `CCN1C(=O)/C(=c2\s/c(=C/c3ccc4c(c3)C3CCCC3N4c3ccc(OC)cc3)c(=O)n2CC(=O)O)SC1=S` (centres unmarked) [Compound 31] showed an Excitation wavelength λex of 550 nm and a Fluorescence wavelength λem of 650 nm.
Taken in the same sequence, the figures for `CCN1C(=O)/C(=c2\s/c(=C/c3ccc4c(c3)C3CCCC3N4c3ccc(SC)cc3)c(=O)n2CC(=O)O)SC1=S` (centres unmarked) [Compound 32] were 544 nm and 658 nm.
On the same counts, the results for `CCN1C(=O)/C(=c2\s/c(=C/c3ccc4c(c3)C3CCCC3N4c3cccc(SC)c3)c(=O)n2CC(=O)O)SC1=S` (centres unmarked) [Compound 33] are 536 nm and 632 nm.
`CCN1C(=O)/C(=c2\s/c(=C/c3ccc4c(c3)C3CCCC3N4c3ccc4cc(OC)ccc4c3)c(=O)n2CC(=O)O)SC1=S` (centres unmarked) [Compound 34]: in data set [1], the Excitation wavelength λex stood at 543 nm and the Fluorescence wavelength λem was 649 nm.
Taken in the same sequence, the figures for `CCN1C(=O)/C(=c2\s/c(=C/c3cc(Br)c4c(c3)C3CCCC3N4c3ccc(Br)cc3)c(=O)n2CC(=O)O)SC1=S` (centres unmarked) [Compound 35] were 520 nm and 617 nm.
Taken in the same sequence, the figures for `CCN1C(=O)/C(=c2\s/c(=C/c3ccc4c(c3)CC(C)N4CC)c(=O)n2CC(=O)O)SC1=S` (centres unmarked) [Compound 36] were 541 nm and 640 nm.
On the same counts, the results for `CCN1C(=O)/C(=c2\s/c(=C/c3cc(Br)c4c(c3)C3CCCC3N4Cc3ccccc3)c(=O)n2CC(=O)O)SC1=S` (centres unmarked) [Compound 37] are 525 nm and 616 nm.
Turning to `CCN1C(=O)/C(=c2\s/c(=C/c3ccc4c(c3)CCN4CC)c(=O)n2CC(=O)O)SC1=S` [Compound 38], in data set [1], the Excitation wavelength λex amounted to 541 nm and the Fluorescence wavelength λem was 642 nm.
Taken in the same sequence, the figures for `CCN1C(=O)/C(=c2\s/c(=C/c3ccc4c(c3)CCN4c3ccccc3)c(=O)n2CC(=O)O)SC1=S` [Compound 39] were 536 nm and 640 nm.
In data set [1], `CCN1C(=O)/C(=c2\s/c(=C/c3ccc4c(c3)c3ccccc3n4CC)c(=O)n2CC(=O)O)SC1=S` [Compound 40] returned an Excitation wavelength λex of 494 nm and a Fluorescence wavelength λem of 551 nm.
On the same counts, the results for `C=CCN1C(=O)/C(=c2\s/c(=C/c3ccc4c(c3)C3CCCC3N4c3ccc(OC)cc3)c(=O)n2CC(=O)O)SC1=S` (centres unmarked) [Compound 41] are 515 nm and 624 nm.
As to `C=CCN1C(=O)/C(=c2\s/c(=C/c3ccc4c(c3)C3CCCC3N4c3ccccc3)c(=O)n2CC(=O)O)SC1=S` (centres unmarked) [Compound 42], in data set [1], the Excitation wavelength λex was 543 nm and the Fluorescence wavelength λem was found to be 636 nm.
On the same counts, the results for `CCCCCCCCN1C(=O)/C(=c2\s/c(=C/c3ccc4c(c3)C3CCCC3N4c3ccc(OC)cc3)c(=O)n2CC(=O)OCC)SC1=S` (centres unmarked) [Compound 43] are 552 nm and 668 nm.
Taken in the same sequence, the figures for `CCCCCN1C(=O)/C(=c2\s/c(=C/c3ccc4c(c3)C3CCCC3N4c3ccc(OC)cc3)c(=O)n2CC(=O)OCC)SC1=S` (centres unmarked) [Compound 44] were 548 nm and 656 nm.
`CCN1c2ccc(/C=C3/SC(=S)N(CCCCCC(=O)O)C3=O)cc2C2CCCC21` (centres unmarked) [Compound 45]: in data set [1], the Excitation wavelength λex was found to be 513 nm and the Fluorescence wavelength λem amounted to 589 nm.
On the same counts, the results for `CCN1c2ccc(/C=C3/SC(=S)N(CCCCCCCCCCC(=O)O)C3=O)cc2C2CCCC21` (centres unmarked) [Compound 46] are 516 nm and 585 nm.
